Experimental data taken from patent US7786120B2, “Pyridones useful as inhibitors of kinases” (Vertex Pharmaceuticals Incorporated, priority 2005, dated 2010).
pKi: −log10 of the molar value.

Assays:
Type in all cases: biochemical
human Itk kinase = target: T1, human Itk kinase (Homo sapiens, UniProt Q08881); test: Itk Inhibition Assay (radioactivity-based or spectrophotometric); settings: inhibition of human Itk kinase
T1 sequence (Q08881 1-620): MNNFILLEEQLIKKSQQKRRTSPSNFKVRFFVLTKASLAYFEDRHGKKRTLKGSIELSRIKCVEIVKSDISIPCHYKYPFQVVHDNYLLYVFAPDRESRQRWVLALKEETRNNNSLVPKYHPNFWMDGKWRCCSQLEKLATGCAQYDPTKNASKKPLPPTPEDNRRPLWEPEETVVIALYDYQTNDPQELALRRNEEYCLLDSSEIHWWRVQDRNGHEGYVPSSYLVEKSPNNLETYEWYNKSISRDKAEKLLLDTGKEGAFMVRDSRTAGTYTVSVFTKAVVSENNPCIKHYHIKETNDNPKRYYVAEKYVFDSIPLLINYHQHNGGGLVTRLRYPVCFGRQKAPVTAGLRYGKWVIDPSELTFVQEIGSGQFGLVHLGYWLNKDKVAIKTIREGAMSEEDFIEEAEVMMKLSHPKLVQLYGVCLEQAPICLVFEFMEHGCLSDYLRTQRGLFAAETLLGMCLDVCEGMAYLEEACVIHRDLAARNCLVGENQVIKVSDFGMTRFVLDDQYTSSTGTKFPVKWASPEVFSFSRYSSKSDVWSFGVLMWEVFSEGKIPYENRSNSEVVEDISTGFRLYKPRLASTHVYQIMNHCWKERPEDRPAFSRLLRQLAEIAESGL
Protocol: The compounds of the present invention can be evaluated as inhibitors of human Itk kinase using either a radioactivity-based or a spectrophotometric assay. In general, compounds of the invention, including compounds in Table 1, are effective for the inhibition of Itk. Specifically, compounds I.1 to I.5 and compound I.7 have a Ki value of <1 μM and compounds I.6 and I.8 have a Ki value of >1 μM.
Assays were carried out in a mixture of 100 mM HEPES (pH 7.5), 10 mM MgCl2, 25 mM NaCl, 0.01% BSA and 1 mM DTT. Final substrate concentrations were 15 μM [γ-^33P]ATP (400 μCi ^33P ATP/μmol ATP, Amersham Pharmacia Biotech/Sigma Chemicals) and 2 μM peptide (SAM68 protein Δ332-443). Assays were carried out at 25° C. in the presence of 30 nM Itk. An assay stock buffer solution was prepared containing all of the reagents listed above, with the exception of ATP and the test compound of interest. 50 μL of the stock solution was placed in a 96 well plate followed by addition of 1.5 μL of DMSO stock containing serial dilutions of the test compound (typically starting from a final concentration of 15 μM with 2-fold serial dilutions) in duplicate (final DMSO concentration 1.5%). The plate was pre-incubated for 10 minutes at 25° C. and the reaction initiated by addition of 50 μL [γ-^33P]ATP (final concentration 15 μM).
The reaction was stopped after 10 minutes by the addition of 50 μL of a TCA/ATP mixture (20% TCA, 0.4 mM ATP). A Unifilter GF/C 96 well plate (Perkin Elmer Life Sciences, Cat no. 6005174) was pretreated with 5 μL Milli Q water prior to the addition of the entire reaction mixture (150 μL). […]
IC50 data were calculated from non-linear regression analysis of the initial rate data using the Prism software package (GraphPad Prism version 3.0cx for Macintosh, GraphPad Software, San Diego, Calif., USA). […]
Ki(app) data were calculated from non-linear regression analysis of the initial rate data using the Prism software package (GraphPad Prism version 3.0cx for Macintosh, GraphPad Software, San Diego, Calif., USA). […]

FLT-3 = target: T2, FLT-3 (Homo sapiens, UniProt P36888); test: FLT-3 kinase inhibition (assays similar to the ones described)
T2 sequence (P36888 27-993): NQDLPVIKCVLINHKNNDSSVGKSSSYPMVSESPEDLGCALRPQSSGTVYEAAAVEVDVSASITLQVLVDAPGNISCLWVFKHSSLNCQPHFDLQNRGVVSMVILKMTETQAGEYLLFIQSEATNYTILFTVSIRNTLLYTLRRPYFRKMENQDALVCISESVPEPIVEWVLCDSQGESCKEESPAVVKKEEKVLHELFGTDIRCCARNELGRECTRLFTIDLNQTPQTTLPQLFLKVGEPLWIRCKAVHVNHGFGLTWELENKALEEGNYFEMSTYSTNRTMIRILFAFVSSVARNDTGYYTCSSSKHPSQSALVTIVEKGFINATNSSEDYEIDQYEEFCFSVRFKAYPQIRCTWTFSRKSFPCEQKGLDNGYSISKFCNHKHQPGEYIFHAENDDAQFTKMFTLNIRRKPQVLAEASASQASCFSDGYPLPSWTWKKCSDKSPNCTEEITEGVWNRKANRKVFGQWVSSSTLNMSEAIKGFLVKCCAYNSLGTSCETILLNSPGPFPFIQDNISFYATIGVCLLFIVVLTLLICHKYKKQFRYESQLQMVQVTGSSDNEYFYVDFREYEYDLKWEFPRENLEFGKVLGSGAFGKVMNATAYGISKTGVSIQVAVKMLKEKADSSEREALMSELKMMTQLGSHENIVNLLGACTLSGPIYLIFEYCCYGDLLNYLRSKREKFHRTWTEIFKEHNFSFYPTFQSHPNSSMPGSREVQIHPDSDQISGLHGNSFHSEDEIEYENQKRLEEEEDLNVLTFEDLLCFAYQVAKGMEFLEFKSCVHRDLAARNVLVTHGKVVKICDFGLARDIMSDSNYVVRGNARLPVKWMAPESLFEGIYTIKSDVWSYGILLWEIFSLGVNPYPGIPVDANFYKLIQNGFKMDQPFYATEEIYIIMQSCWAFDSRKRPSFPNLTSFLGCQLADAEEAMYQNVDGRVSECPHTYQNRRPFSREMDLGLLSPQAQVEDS
Protocol: (§1) Compound I.9 was tested in assays similar to the ones described herein and found to inhibit FLT-3, JAK2, and JAK3 kinases.

JAK2 = JAK2 (Homo sapiens, UniProt O60674); test: JAK2 kinase inhibition (assays similar to the ones described)
Protocol: as §1

JAK3 = target: T3, JAK3 (Homo sapiens, UniProt P52333); test: JAK3 kinase inhibition (assays similar to the ones described)
T3 sequence (P52333 1-1124): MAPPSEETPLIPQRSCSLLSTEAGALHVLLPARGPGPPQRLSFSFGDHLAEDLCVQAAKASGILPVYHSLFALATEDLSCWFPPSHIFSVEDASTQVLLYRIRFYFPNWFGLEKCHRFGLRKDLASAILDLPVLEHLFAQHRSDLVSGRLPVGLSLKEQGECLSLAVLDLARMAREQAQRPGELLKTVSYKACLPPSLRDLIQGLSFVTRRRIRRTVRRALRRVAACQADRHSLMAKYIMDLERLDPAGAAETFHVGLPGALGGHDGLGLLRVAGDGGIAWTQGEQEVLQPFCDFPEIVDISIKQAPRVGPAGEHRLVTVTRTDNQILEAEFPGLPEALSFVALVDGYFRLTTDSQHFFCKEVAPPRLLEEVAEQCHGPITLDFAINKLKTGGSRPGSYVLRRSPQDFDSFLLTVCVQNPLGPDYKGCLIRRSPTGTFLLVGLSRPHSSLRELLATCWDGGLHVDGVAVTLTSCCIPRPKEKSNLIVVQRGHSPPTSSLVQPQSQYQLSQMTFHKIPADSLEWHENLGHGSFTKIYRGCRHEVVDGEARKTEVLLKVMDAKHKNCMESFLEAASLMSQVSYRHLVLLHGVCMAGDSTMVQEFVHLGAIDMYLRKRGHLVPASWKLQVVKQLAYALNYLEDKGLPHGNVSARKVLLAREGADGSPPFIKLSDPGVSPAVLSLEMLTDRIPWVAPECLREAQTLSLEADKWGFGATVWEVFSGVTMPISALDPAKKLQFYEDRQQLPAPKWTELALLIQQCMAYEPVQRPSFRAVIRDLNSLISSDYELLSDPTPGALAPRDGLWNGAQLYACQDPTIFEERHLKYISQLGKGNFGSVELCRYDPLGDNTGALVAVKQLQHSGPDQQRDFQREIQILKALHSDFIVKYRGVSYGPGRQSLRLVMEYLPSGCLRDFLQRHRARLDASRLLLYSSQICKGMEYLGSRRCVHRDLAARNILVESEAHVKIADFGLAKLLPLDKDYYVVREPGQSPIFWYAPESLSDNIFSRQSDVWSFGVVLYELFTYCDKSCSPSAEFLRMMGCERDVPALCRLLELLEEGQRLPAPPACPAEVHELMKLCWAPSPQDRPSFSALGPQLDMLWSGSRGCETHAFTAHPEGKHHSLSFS
Protocol: as §1

JAK2, sequence (O60674 whole entry, species assumed): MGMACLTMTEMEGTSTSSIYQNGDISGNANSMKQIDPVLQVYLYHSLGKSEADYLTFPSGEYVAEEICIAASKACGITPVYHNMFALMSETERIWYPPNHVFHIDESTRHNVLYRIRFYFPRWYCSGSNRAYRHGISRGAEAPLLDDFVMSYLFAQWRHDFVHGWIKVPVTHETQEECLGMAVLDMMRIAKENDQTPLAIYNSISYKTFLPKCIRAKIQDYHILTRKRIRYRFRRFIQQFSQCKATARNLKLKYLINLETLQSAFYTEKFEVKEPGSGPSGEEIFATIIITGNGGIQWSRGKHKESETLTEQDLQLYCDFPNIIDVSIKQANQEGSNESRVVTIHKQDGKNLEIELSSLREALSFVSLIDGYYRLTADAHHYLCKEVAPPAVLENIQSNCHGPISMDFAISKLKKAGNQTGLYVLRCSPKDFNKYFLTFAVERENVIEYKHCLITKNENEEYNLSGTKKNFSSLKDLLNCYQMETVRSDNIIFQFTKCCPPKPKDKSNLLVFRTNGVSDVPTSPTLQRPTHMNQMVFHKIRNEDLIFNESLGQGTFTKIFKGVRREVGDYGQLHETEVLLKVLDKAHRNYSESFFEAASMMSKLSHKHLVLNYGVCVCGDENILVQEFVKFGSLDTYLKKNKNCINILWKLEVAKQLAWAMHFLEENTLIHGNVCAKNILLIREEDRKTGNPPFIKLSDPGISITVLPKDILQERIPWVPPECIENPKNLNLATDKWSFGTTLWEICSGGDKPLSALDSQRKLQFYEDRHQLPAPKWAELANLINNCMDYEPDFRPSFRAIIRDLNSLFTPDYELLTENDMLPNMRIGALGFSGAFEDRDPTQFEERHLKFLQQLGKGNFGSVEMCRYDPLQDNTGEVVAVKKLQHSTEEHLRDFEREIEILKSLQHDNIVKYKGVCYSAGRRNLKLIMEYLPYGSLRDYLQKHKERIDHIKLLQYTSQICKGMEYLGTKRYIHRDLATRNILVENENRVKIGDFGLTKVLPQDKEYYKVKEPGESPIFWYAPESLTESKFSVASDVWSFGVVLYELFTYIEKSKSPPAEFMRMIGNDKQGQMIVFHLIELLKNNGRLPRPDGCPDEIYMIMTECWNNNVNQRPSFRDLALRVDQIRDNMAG

Compound: CNc1cncc(-c2c[nH]c(=O)c(/C=C3\C(=O)Nc4ccccc43)c2)n1 [I.6, 3-((1,2-dihydro-5-(6-(methylamino)pyrazin-2-yl)-2-oxopyridin-3-yl)methylene)indolin-2-one]
- pKi (human Itk kinase): < 6.00

Compound: CNc1cncc(-c2c[nH]c(=O)c(/C=C/c3cc(CN4CCN(S(C)(=O)=O)CC4)ccc3[N+](=O)[O-])c2)n1 [I.7]
- pKi (human Itk kinase): > 6.00

Compound: CNc1cncc(-c2c[nH]c(=O)c(/C=C/c3cc(OC)ccc3[N+](=O)[O-])c2)n1 [I.8]
- pKi (human Itk kinase): < 6.00

Compound: O=c1[nH]cc(-c2ccccc2Cl)cc1/C=C/c1cnc2ccccn12 [I.9]
- inhibition of FLT-3 kinase (in words) (FLT-3): inhibit
- inhibition of JAK2 kinase (in words) (JAK2): inhibit
- inhibition of JAK3 kinase (in words) (JAK3): inhibit
